For the data set the following is noted: mouse, in vivo.

The structures appear in SMILES notation.

`CCCCCCCCCCCCCCCCCCN1C(=CC=CC=CC=CC2=[N+](CCCCCCCCCCCCCCCCCC)c3ccccc3C2(C)C)C(C)(C)c2ccccc21.[I-]` [free DIR, 1,1′-Dioctadecyl-3,3,3′,3′-Tetramethylindotricarbo-cyanine Iodide]: the “IR signal in blood after IV injection” value was “no signal was seen”.

The values are drawn from patent US20210369860A1, “FUNCTIONALIZED NANOPARTICLE FORMULATIONS FOR ORAL DRUG DELIVERY” (THE REGENTS OF THE UNIVERSITY OF COLORAD, priority 2018, published 2021).
